Values quoted from earlier work as cited in patent US4681764A, “Porous and spherical carbonaceous product” (Kureha Kagaku Kogyo Kabushiki Kaisha, priority 1979, dated 1987).

Settings: in vivo

For oxidized starch, the “stimulation of the intestinal wall” value is listed as “side-reaction of stimulating the intestinal wall”.
